# Assay results published in patent US9125849B2, “TOMM34 peptides and vaccines including the same” (ONCOTHERAPY SCIENCE, INC., priority 2010, dated 2015).
# Non-standard residues stand in square brackets, D forms with d. No end group written: not given here.
# How the values were obtained:
# peptide-pulsed T2 cells [1] = test: In vitro CTL induction, IFN-gamma ELISPOT assay; type: cell-based, human; details: CTLs induced with peptide-pulsed DCs from HLA-A*0201 positive donor, vs target cells not pulsed with peptide
# Description: Monocyte-derived dendritic cells (DCs) were used as antigen-presenting cells to induce cytotoxic T lymphocyte (CTL) responses against peptides presented on human leukocyte antigen (HLA). DCs were generated in vitro as described elsewhere (Nakahara S et al., Cancer Res 2003 Jul. 15, 63(14): 4112-8). Specifically, peripheral blood mononuclear cells isolated from a normal volunteer (HLA-A*0201 positive) by Ficoll-Paque plus (Pharmacia) solution were separated by adherence to a plastic tissue culture dish (Becton Dickinson) so as to enrich them as the monocyte fraction. The monocyte-enriched population was cultured in the presence of 1000 U/ml of granulocyte-macrophage colony-stimulating factor (R&D System) and 1000 U/ml of interleukin (IL)-4 (R&D System) in AIM-V Medium (Invitrogen) containing 2% heat-inactivated autologous serum (AS). After 7 days of culture, the cytokine-induced DCs were pulsed with 20 micro-g/ml of each of the synthesized peptides in the presence of 3 micro-g/ml of beta 2-microglobulin for 3 hr at 37 degrees C. in AIM-V Medium. The generated cells appeared to express DC-associated molecules, such as CD80, CD83, CD86 and HLA class II, on their cell surfaces (data not shown). These peptide-pulsed DCs were then inactivated by X ray-irradiated (20 Gy) and mixed at a 1:20 ratio with autologous CD8+ T cells, obtained by positive selection with CD8 Positive Isolation Kit (Dynal). These cultures were set up in 48-well plates (Corning); each well contained 1.5×10^4 peptide-pulsed DCs, 3×10^5 CD8+ T cells and 10 ng/ml of IL-7 (R&D System) in 0.5 ml of AIM-V/2% AS medium. Three days later, these cultures were supplemented with IL-2 (CHIRON) to a final concentration of 20 IU/ml. On day 7 and 14, the T cells were further stimulated with the autologous peptide-pulsed DCs. The DCs were prepared each time by the same way described above. CTL was tested against peptide-pulsed T2 cells after the 3rd round of peptide stimulation on day 21 (Tanaka H et al., Br J Cancer 2001 Jan. 5, 84(1): 94-9; Umano Y et al., Br J Cancer 2001 Apr. 20, 84(8): 1052-7; Uchida N et al., Clin Cancer Res 2004 Dec. 15, 10(24): 8577-86; Suda T et al., Cancer Sci 2006 May, 97(5): 411-9; Watanabe T et al., Cancer Sci 2005 August, 96(8): 498-506).
# (§1) Peptide-pulsed T2 (1×10^4/well) was prepared as stimulator cells. Cultured cells in 48 wells were used as responder cells. IFN-gamma ELISPOT assay and IFN-gamma ELISA assay were performed under manufacture procedure.
# peptide-pulsed T2 cells [2] = test: CTL line activity, IFN-gamma ELISA; type: cell-based, human; details: CTL line stimulated with peptide; target cells pulsed with peptide vs without peptide pulse
# Procedure: CTLs were expanded in culture using the method similar to the one described by Riddell et al. (Walter E A et al., N Engl J Med 1995 Oct. 19, 333(16): 1038-44; Riddell S R et al., Nat Med 1996 February, 2(2): 216-23). A total of 5×10^4 CTLs were suspended in 25 ml of AIM-V/5% AS medium with 2 kinds of human B-lymphoblastoid cell lines, inactivated by Mitomycin C, in the presence of 40 ng/ml of anti-CD3 monoclonal antibody (Pharmingen). One day after initiating the cultures, 120 IU/ml of IL-2 were added to the cultures. The cultures were fed with fresh AIM-V/5% AS medium containing 30 IU/ml of IL-2 on days 5, 8 and 11 (Tanaka H et al., Br J Cancer 2001 Jan. 5, 84(1): 94-9; Umano Y et al., Br J Cancer 2001 Apr. 20, 84(8): 1052-7; Uchida N et al., Clin Cancer Res 2004 Dec. 15, 10(24): 8577-86; Suda T et al., Cancer Sci 2006 May, 97(5): 411-9; Watanabe T et al., Cancer Sci 2005 August, 96(8): 498-506).
# as §1
# peptide-pulsed T2 cells [3] = test: CTL clone activity, IFN-gamma ELISA; type: cell-based, human; details: CTL clone established by limiting dilution from the CTL line; target cells pulsed with peptide; listed as TOMM34-A02-9-30
# Procedure: The dilutions were made to have 0.3, 1, and 3 CTLs/well in 96 round-bottomed micro titer plate (Nalge Nunc International). CTLs were cultured with 1×10^4 cells/well of 2 kinds of human B-lymphoblastoid cell lines, 30 ng/ml of anti-CD3 antibody, and 125 U/ml of IL-2 in a total of […] of AIM-V Medium containing 5% AS. 50 micro-1/well of IL-2 were added to the medium 10 days later so to reach a final concentration of 125 U/ml IL-2. CTL activity was tested on the 14th day, and CTL clones were expanded using the same method as described above (Uchida N et al., Clin Cancer Res 2004 Dec. 15, 10(24): 8577-86; Suda T et al., Cancer Sci 2006 May, 97(5): 411-9; Watanabe T et al., Cancer Sci 2005 August, 96(8): 498-506).
# as §1
# [4] = tested on: COS7 cells transfected with both TOMM34 and HLA-A*0201; test: Specific CTL activity against target cells expressing TOMM34 and HLA-A*0201; type: cell-based, African green monkey; details: COS7 cells expressing both TOMM34 and HLA-A*0201; listed as TOMM34-A02-9-30
# Description: (§2) The cDNA encoding an open reading frame of target genes or HLA-A*0201 was amplified by PCR. The PCR-amplified product was cloned into expression vector. The plasmids were transfected into COS7, which is the target genes and HLA-A*0201-null cell line, using lipofectamine 2000 (Invitrogen) according to the manufacturer's recommended procedures. After 2 days from transfection, the transfected cells were harvested with versene (Invitrogen) and used as the stimulator cells (5×10^4 cells/well) for CTL activity assay.
# (§3) The established CTL line raised against TOMM34-A02-9-30 (SEQ ID NO: 1) peptide was examined for the ability to recognize target cells that express TOMM34 and HLA-A*0201 molecule. COS7 cells transfected with both the full length of TOMM34 and HLA-A*0201 gene (a specific model for the target cells that express TOMM34 and HLA-A*0201 gene) were prepared as stimulator cells, and COS7 cells transfected with either full length of TOMM34 or HLA-A*0201 were used as the controls.
# [5] = tested on: COS7 cells transfected with either full length of TOMM34 or HLA-A*0201; test: Specific CTL activity against control target cells; type: cell-based, African green monkey; details: control COS7 cells expressing either HLA-A*0201 or TOMM34
# Description: as §2, §3
substance,measurement,setting,value
KLPSiPLVPV (KLPS[code i]PLVPV; not fully specified; printed as KLPSiPLVPV) [SEQ ID NO: 21],peptide specific CTL activity (IFN-gamma production) by IFN-gamma ELISPOT,peptide-pulsed T2 cells [1]; listed as TOMM34-A02-10-143,specific IFN-gamma production was not observed
LLCSnLESAT (LLCS[code n]LESAT; not fully specified; printed as LLCSnLESAT) [SEQ ID NO: 32],peptide specific CTL activity (IFN-gamma production) by IFN-gamma ELISPOT,peptide-pulsed T2 cells [1],potent IFN-gamma production
ALYGRALRV [SEQ ID NO: 1],peptide specific CTL activity (IFN-gamma production) by IFN-gamma ELISPOT,peptide-pulsed T2 cells [1],potent IFN-gamma production
same,IFN-gamma production of the CTL line by IFN-gamma ELISA,peptide-pulsed T2 cells [2],potent IFN-gamma production
same,IFN-gamma production of the CTL clone by IFN-gamma ELISA,peptide-pulsed T2 cells [3],potent IFN-gamma production
same,specific CTL activity of the CTL line,[4],potent CTL activity
same,specific CTL activity of the CTL line,[5],no significant specific CTL activity was detected
ALYGrALRVL (ALYG[code r]ALRVL; not fully specified; printed as ALYGrALRVL) [SEQ ID NO: 31],peptide specific CTL activity (IFN-gamma production) by IFN-gamma ELISPOT,peptide-pulsed T2 cells [1],potent IFN-gamma production
LLCSNLESA [SEQ ID NO: 5],peptide specific CTL activity (IFN-gamma production) by IFN-gamma ELISPOT,peptide-pulsed T2 cells [1],potent IFN-gamma production
